What was measured:
[1] = tested on: MCF7, T47D, and Zr-75-1 cells; assay: BrdU incorporation (cell-cycle checkpoint) after CDDP treatment; format: cell-based, human
Experimental: The RB and p53 tumor suppressors are known to be critical for induction of DNA damage checkpoints, and therapies inducing DNA damage are used as an additional line of treatment for ER-positive breast cancers resistant to hormonal therapy. Therefore, the role of these tumor suppressors in the response to therapeutic doses of DNA-damaging agents is investigated. Wild-type MCF7, T47D, and Zr-75-1 cells are treated with 0, 8, or 16 μM CDDP and labeled with BRDU to determine the effect of the agent on cell-cycle progression. […] To specifically probe the impact of RB in the response to DNA damage, T47D and Zr-75-1 polyclonal donor and siRb88 cells are utilized. […] To confirm these findings, MCF7 donor 1 and siRb28 cells are treated with either CDDP as described above or with 0, 2.5, or 5 Gy ionizing radiation (IR). […] To determine the long-term effect of DNA damage therapy upon proliferation, cell growth assays are performed wherein the RB-proficient and deficient MCF7 clones are plated at equal density and treated with 2.5 or […].
(§1) RB target gene upregulation is a prognostic indicator in human breast cancers. RB performs a myriad of functions, the most well understood being repression of the E2F family of transcription factors. To determine the specific influence of the E2F axis on bypassing therapy, an activator E2F is overexpressed in wild-type MCF7 cells. Specifically, cells are infected either with an adenovirus encoding E2F3 (ad-E2F3) or a control virus (Ad-LacZ) and are harvested 3 days after infection for immunoblot analysis of levels of known RB-E2F targets (FIG. 5A). […] As expected, no changes are detected in RB levels, and CDK4 serves as a loading control. In order to assess the response to therapeutic intervention, 3 days after infection Ad-E2F3- or AdLacZ-infected MCF7 cells are separated into 2 major treatment groups: hormone therapy and DNA damage therapy. The estrogen ablation group is then cultured in the absence of estrogen and in the presence of Tam and ICI as described above. Alternatively, the cells in the DNA damage therapy group are treated with 16 μM CDDP for 18 hours prior to washing or treatment with 5 Gy IR. Cells from both therapy groups are BrdU labeled, and the replicative fraction of treated cells is determined with respect to untreated control cells (FIG. 5B).
The MCF7, T47D, and Zr-75-1 cell lines are obtained from ATCC and propagated in DMEM containing 10% FS supplemented with 100 U/ml penicillin/streptomycin and 2 mM L-glutamine at 37° C. in air containing 5% CO2. […] Cells are infected with Ad-lacZ at a multiplicity of infection of 50, at which 95% of cells are infected (as determined by plaque assay in 293 cells) or with 2.7×10^11 virus particles/ml of Ad-E2F3 and cultured for 3 days prior to use. […]

[2] = tested on: MCF7 donor or siRb xenograft tumors; assay: Nude mouse xenograft therapeutic study; format: in vivo, nude mice
Experimental: The xenograft model system is then utilized to test the response of RB-deficient tumors to CDDP therapy. Tumors are developed in the flanks of mice by injecting MCF7 donor or siRb cells into the flanks of mice and implanting a […] (E2) pellet into the back. When tumors reached 100-110 mm^3, mice received 5 mg/kg CDDP every 4 days for 5 courses.
To assess the role of RB in the therapeutic response of MCF7 cells in vivo, the xenograft model is again employed. Upon the attainment of tumors of approximately 100-120 mm^3, mice are deprived of estrogen and treated with Tam. […] (FIG. 4F). […] All tumors are weighed upon exclusion, and RB-deficient tumors are more than 3 times heavier than control tumors following Tam therapy (FIG. 4G).
Five- to 8-week-old female ovariectomized athymic nude mice are anesthetized, and an E2 pellet (1.7 mg/pellet, 90-day release) or placebo is surgically implanted in the back. Following implantation, 200 μl of a PBS- and phenol red-free Matrigel matrix basement membrane, solution (3:1) containing 2×10^6 cells is injected subcutaneously into the flank, or contralaterally where noted. Tumor volume is measured with calipers every 4 days using the equation V=0.52 (width)^2 ×(length). In the therapeutic studies, when tumor volume reaches 100-120 mm^3, animals are placed into 1 of 3 therapeutic groups (each group containing at least 6 animals): control animals retaining the estrogen pellet, antiestrogen-treated animals, or CDDP-treated animals. Animals in the antiestrogen treatment group are anesthetized, the estrogen pellet is surgically removed, and a Tam pellet (5 mg/pellet, 60-day release) implanted. The CDDP-treated animals receive 5 mg/kg CDDP injected i.p. on a q4dx5 schedule (every 4 days for 5 courses). All animals are injected i.p. with 150 mg/kg BrdU (Sigma-Aldrich) 1 hour prior to euthanization. Xenograft tumors are weighed and fixed in 10% neutral buffered formalin, paraffin embedded, and cut into 5-ÿm sections. For immunohistochemical staining, sections are deparaffinized in xylene and rehydrated through a graded series of ethanol/water solutions. A BrdU detection kit is utilized as recommended by the manufacturer. BrdU incorporation is scored in a blinded manner, and at least 500 cells per section are counted from several random fields.

[3] = tested on: MCF7, T47D, and Zr-75-1 cells; assay: BrdU incorporation under hormone deprivation / antiestrogen (CDT, CDT/Tam, CDT/ICI); format: cell-based, human
Experimental: To understand the impact of RB deficiency on the response to hormone deprivation therapy, cells are cultured in CDT, CDT/Tam, or in the presence of pure antiestrogen, ICI182780 (CDT/ICI). Following treatment with these modalities, cells are labeled with BrdU to determine the influence of each agent on cell-cycle progression and the corresponding influence of RB knockdown on this response (FIG. 4B). These experiments are recapitulated in the polyclonal populations of T47D and Zr-75-1 donor and siRb88 cells (FIG. 4C). […] To elucidate the long-term growth effects of these therapies, cell proliferation assays are performed over 9 days. RB-proficient and -deficient MCF7 cells are seeded at equal densities and cultured in CDT/Tam (FIG. 4D). […] Similar results are evident in the same experiments with both T47D and Zr-75-1 RB-proficient and -deficient polyclonal pools (FIG. 4E).
as §1
To study the effect of estrogen depletion, cells are cultured for 72 hours in phenol red-free DMEM supplemented with 10% CDT serum with addition of 10^−9 M 4-HydroxyTam or 10^−6 M ICI where indicated. Cell growth assays are performed by trypsinizing cells and counting by trypan blue exclusion every 3 days.
Cells treated with IR are exposed to ^137Cs (dose rate: 0.67 Gy/min) at room temperature in tissue culture media. Culture with clinical grade CDDP for 18 hours is performed for all CDDP treatments. For all proliferation studies, cells are labeled with BrdU for 10 hours or 5 hours for LXSN/LXSN-p53dd infected cells, and BrdU immunofluorescence is performed as previously described. All BrdU results are expressed as a percentage of untreated control cells set to 100%, unless otherwise noted.

Compound | cell-cycle arrest (replicative fraction, BrdU) ([1]; Ad-E2F3-infected versus control infected MCF7 cells, 16 μM CDDP for 18 hours) | DNA damage checkpoint (BrdU labeling) ([1]; MCF7 siRb28 versus donor 1 cells, CDDP 0, 8, or 16 μM) | BrdU incorporation following DNA damage ([1]; RB-deficient (siRb88) T47D and Zr-75-1 cells, 0, 8, or 16 μM CDDP) | effect on cell-cycle progression (BrdU labeling) ([1]; wild-type RB-positive MCF7, T47D, Zr-75-1 cells, 0, 8, or 16 μM CDDP for 18 hours, BrdU 10 hours) | tumor response during treatment, RB-deficient tumors ([2]; RB-deficient MCF7 tumors versus control tumors, 5 mg/kg CDDP every 4 days for 5 courses) | tumor response during treatment ([2]; RB-proficient and RB-deficient MCF7 tumors, 5 mg/kg CDDP i.p. every 4 days for 5 courses) | tumor weight upon excision, tumors lacking RB relative to control tumors ([2]; following CDDP therapy) | cell-cycle arrest (replicative fraction, BrdU) ([3]; Ad-E2F3-infected versus control infected MCF7 cells, absence of estrogen plus agent) | cell-cycle inhibition by the agent (BrdU labeling) ([3]; RB-depleted cells (MCF7 siRb28, T47D and Zr-75-1 siRb88), CDT serum plus agent, 3 days) | cell-cycle progression (BrdU labeling) ([3]; cells harboring functional RB (MCF7, T47D, Zr-75-1 donor), CDT serum plus agent, 3 days, 10^−9 M 4-HydroxyTam or 10^−6 M ICI)
N.N.[Cl][Pt][Cl] [CDDP, cis-diamminedichloroplatinum II] | significantly reduced levels of cell-cycle arrest | RB deficiency promotes bypass of the DNA damage checkpoints | continue to incorporate BrdU efficiently | dose-dependent cell-cycle checkpoint | regressed more rapidly | both tumor types regressed | less than half as much as control tumors | – | – | –
C[C@]12CC[C@@H]3c4ccc(O)cc4C[C@@H](CCCCCCCCC[S+]([O-])CCCC(F)(F)C(F)(F)F)[C@H]3[C@@H]1CC[C@@H]2O (stereo partly shown) [ICI182780] | – | – | – | – | – | – | – | significantly reduced levels of cell-cycle arrest | significantly reduced | elicit cell-cycle inhibition
